# Results reported in patent publication US8617871B2, “Method and culture medium for enhanced detection of Mycobacterium” (bioMerieux, Inc., priority 2009, dated 2013).
# “And” between values parts separate entries of the source, which are not always exact repeats. Identical values can stand only once. Like-named read-outs stand apart in the source and are kept apart here.
# What was measured:
# [1] = tested on: M. avium; type: cell-based, Mycobacterium avium
# [2] = tested on: M. intracellulare; type: cell-based, Mycobacterium intracellulare
# [3] = tested on: M. tuberculosis; test: Time to detection (TTD) of growth in BacT/ALERT MP culture bottles; type: cell-based, Mycobacterium tuberculosis; conditions: for # Positive: of # Tested
# [4] = tested on: M. fortuitum; test: as above; type: cell-based; conditions: M. fortuitum 6841; for # Positives: of # Tested
# [5] = tested on: M. scrofulaceum; test: as above; type: cell-based, Mycobacterium scrofulaceum; conditions: for # Positives: of # Tested; for effect on the growth (as determined by TTD of growth): Mycobacterium scrofulaceum, compared to a culture medium that contained no antimicrobial agents
# Description: (§1) For the new NS, an autoclaved or new BacT/ALERT® MP bottle was used (as described hereinabove) and for conventional/old RF, conventional/old MP bottle (bioMérieux, Inc.) was used. […] The conventional MAS (using conventional/old RF) and new MAS formulas (using NS) were added to the second set of MP culture bottles. The experiment was performed with mycobacteria species at 0.5×10^3 CFU/ml and CRF cultures at 0.5×10^5 CFU/ml.
# (§2) The mycobacteria inoculum was 0.5×10^3 CFU/ml.
# [6] = tested on: M. kansasii; test: as above; type: cell-based, Mycobacterium kansasii; conditions: for # Positives: M. kansasii 12478, of # Tested; for effect on the growth (as determined by TTD of growth): Mycobacterium kansasii, compared to a culture medium that contained no antimicrobial agents
# Description: as §1, §2
# [7] = tested on: contaminating respiratory flora (CRF); type: cell-based
# [8] = M. scrofulaceum 19981, Media + VAN 3.5
# [9] = M. tuberculosis 27294, Media + AZL 24
smiles,measurement,setting,value
"O=C(O)CCC(=O)C(=O)O [α-keto glutarate, α-ketoglutarate]",No. of positives,[1],3
same,reduction in time to detection (TTD) of growth,[1],two
same,Avg. TTD,[2],9.0 days and 8.8 days
same,No. of positives,[2],3
same,reduction in time to detection (TTD) of growth,[2],two
same,No. of positives,[3],3
same,reduction in time to detection (TTD) of growth,[3],two
"CN[C@H](CC(C)C)C(=O)N[C@H]1C(=O)N[C@@H](CC(N)=O)C(=O)N[C@H]2C(=O)N[C@H]3C(=O)N[C@H](C(=O)N[C@H](C(=O)O)c4cc(O)cc(O)c4-c4cc3ccc4O)[C@H](O)c3ccc(c(Cl)c3)Oc3cc2cc(c3O[C@@H]2O[C@H](CO)[C@@H](O)[C@H](O)[C@H]2O[C@H]2C[C@](C)(N)[C@H](O)[C@H](C)O2)Oc2ccc(cc2Cl)[C@H]1O [VAN, vancomycin]",Average TTD,[4]; Media + VAN 1.75,4.7 days
same,# Positives,[4]; Media + VAN 1.75,4.0
same,Average TTD,[4]; Media + VAN 3.5,4.1 days
same,# Positives,[4]; Media + VAN 3.5,4.0
same,Average TTD,[4]; Media + VAN 7,4.8 days
same,# Positives,[4]; Media + VAN 7,4.0
same,# Positives,"[5]; M. scrofulaceum 19981, Media + VAN 1.75",4.0
same,Average TTD,[5]; [8],14.0 days
same,# Positives,[5]; [8],4.0
same,# Positives,"[5]; M. scrofulaceum 19981, Media + VAN 7",1.0
same,effect on the growth (as determined by TTD of growth),[5],negative effect
same,# Positives,[6]; Media + VAN 1.75,4.0
same,# Positives,[6]; Media + VAN 3.5,2.0
same,effect on the growth (as determined by TTD of growth),[6],negative effect
same,effect on the growth (as determined by TTD of growth),[3],negative effect
"CC1(C)S[C@@H]2[C@H](NC(=O)[C@H](NC(=O)N3CCNC3=O)c3ccccc3)C(=O)N2[C@H]1C(=O)O [AZL, azlocillin]",effect on the growth (as determined by TTD of growth),[5],negative effect
same,effect on the growth (as determined by TTD of growth),[6],negative effect
same,effect on the growth (as determined by TTD of growth),[2],negative effect
same,# Positive,"[3]; M. tuberculosis 25177, Media + AZL12",4.0
same,# Positive,"[3]; M. tuberculosis 25177, Media + AZL 24",2.0
same,# Positive,"[3]; M. tuberculosis 25177, Media + AZL 48",2.0
same,# Positive,"[3]; M. tuberculosis 27294, Media + AZL12",4.0
same,Average TTD,[3]; [9],16.0 days
same,# Positive,[3]; [9],4.0
same,# Positive,"[3]; M. tuberculosis 27294, Media + AZL 48",4.0
same,effect on the growth (as determined by TTD of growth),"[3]; Mycobacterium tuberculosis, compared to a culture medium that contained no antimicrobial agents",negative effect
C[C@@H]1O[C@@H]1P(=O)(O)O [fosfomycin],ability to suppress contaminating respiratory flora (CRF),[7],the best choice for suppression of CRF
